Data: publication PMC10439952, “JT002, a small molecule inhibitor of the NLRP3 inflammasome for the treatment of autoinflammatory disorders” (Scientific Reports, 2023)

Columns and labels:
[1] = Plasma JT002 concentrations in mice after a single oral dose; format: in vivo, mouse; conditions: single oral dose 25 mg/kg
Experimental: In vivo pharmacodynamics (PD) were evaluated in mice for determination of target engagement as this species is routinely used for assessment of preclinical efficacy. Treatment of fresh, whole blood with LPS plus ATP results in the NLRP3-dependent release of IL-1β, thus providing a robust method for tracking target engagement of NLRP3 inflammasome inhibitors in the circulation after oral dose administration[36],[47]. In vivo target engagement using ex vivo stimulation of blood was evaluated in mice at various times after oral dosing of JT002. For each time point tested, one group of mice received a single oral dose of 25 mg/kg JT002 (n = 8/group) and another group received the vehicle control (n = 8/group). At the time of harvest, blood was collected from each animal and an aliquot removed and processed to plasma for determination of JT002 concentrations. The remaining blood was stimulated ex vivo with LPS plus ATP followed by analysis of IL-1β concentrations (Fig. 3A). […] Consistent with these findings, plasma concentrations of JT002 decreased over time, with mean concentrations of ≥ 4.0 µM through 8 h and a mean concentration of 6 nM at the 24-h sampling (Fig. 3C,D). […]

[2] = system: ozone exposed C57BL6/J mice; test: Murine model of ozone induced neutrophilic airway inflammation; format: in vivo, mouse
Experimental: Four groups of 4 or 5 female C57BL6/J mice (The Jackson Laboratory, Bar Harbor, ME) at 8–12 weeks of age were housed under pathogen-free conditions and maintained on an ovalbumin-free diet. Mice were dosed orally with JT002 at 2.5 or 25 mg/kg once daily for 4 days. On the last day, 1-h post-dosing of test compound, mice were exposed to O3 at 1.0 ppm for 3 h in stainless steel wire cages set inside 240-L laminar flow inhalation chambers. O3 was generated by directing compressed medical-grade oxygen through an electrical discharge O3 generator (Sander Ozonizer, Model 25, Erwin Sander Elektroapparatebau GmbH, Uetze-Eltze, Germany) located upstream of the exposure chamber. Exposure to HEPA-filtered air was done in a separate chamber with age- and treatment-matched control animals.
Determination of airway hyperresponsiveness (AHR) AHR was assessed on Day 30 (iTreg model) or 3 h after the O3 exposure (ozone model) as a change in airway resistance (cm H2O/mL/s) after challenge with aerosolized methacholine with using a whole body plethysmograph-based system (National Jewish Medical and Research Center, Denver, CO). Methacholine aerosol was administered by nebulization in increasing concentrations (12.5–100 mg/mL) and RL was continuously computed by fitting flow, volume, and pressure to an equation of motion (Labview, National Instruments, Dallas, TX). Bronchoalveolar Lavage Immediately after assessment of AHR, lungs were lavaged via the tracheal tube with 1 mL of Hanks’ balanced salt solution (Gibco, Grand Island, NY). Total cell numbers were counted. Differential cell counts for neutrophils and macrophages were performed in a blinded fashion by counting at least 200 cells on cytocentrifuged preparations (Model Cytospin 3, Shandon Ltd, Runcorn, UK) stained with Leukostat (Fisher Diagnostics, Fair Lawn, NJ). Cell-free BAL fluid was stored at − 80 °C until measurements of cytokine levels by ELISA (eBioscience, San Diego, CA) were performed. Blood Collection Immediately following AHR measurement, mice were euthanized by exsanguination and blood collected for serum. Samples were stored at − 80 °C for subsequent measurement of immunoglobulin levels by ELISA. Lung Histology After BAL collection, lungs were inflated through the trachea with 1 mL of 10% formalin, removed and fixed in 10% formalin by immersion. Blocks of the lung tissue were cut around the main bronchus and embedded in paraffin blocks. Tissue sections (5 μm) were affixed to glass slides, and the slides were deparaffinized and stained with H&E for qualitative analysis of inflammatory cell influx and epithelial desquamation.

[3] = 2.5 mg/kg orally once daily for 4 days
[4] = 25 mg/kg orally once daily for 4 days

CO[C@@H]1COc2c(S(=O)(=O)NC(=O)Nc3c4c(cc5c3CCC5)CCC4)cnn2C1 [JT002]
concentration at 24 h ([1]; male, C57BL/6, mouse, plasma, 24-h sampling): 6 nM | concentration at 24 h ([1]; through 8 h): ≥ 4000 nM | AHR [2, 3]: strong trend for reduction | BAL neutrophilia [2, 3]: no effect | prevention of airway epithelial desquamation [2, 3]: strong trend | BAL fluid neutrophil numbers [2, 4]: significantly reduced | appearance of epithelial cells in the airway lumen [2, 4]: visibly reduced | number of epithelial cells in the BAL fluid [2, 4]: no effect | ozone-induced AHR [2, 4]: prevented ozone-induced AHR
